Series [1] relates to Pyrenophora teres. Kind of series: Action against Pyrenophora teres (net blotch) on barley leaf segments. The class given is in vivo. The conditions noted are these: foliar, 96 h, barley leaf segments sprayed with 0.02% active ingredient, assessed 4 days after inoculation, read-out: preventive fungicidal activity (inhibition). On the procedure: Action Against Pyrenophora teres (Net Blotch) on Barley Barley leaf segments were placed on agar in multiwell plates (24-well format) and sprayed with test solutions (0.02% active ingredient). After drying, the leaf disks were inoculated with a spore suspension of the fungus. After appropriate incubation the activity of a compound was assessed 4 days after inoculation as preventive fungicidal activity. Compounds 1.003 and 1.004 show very good activity in this test (≧80% inhibition).

Series [2] relates to Puccinia recondita. Kind of series: Curative action against Puccinia recondita (brown rust) on wheat leaf segments. It is filed as in vivo. The conditions noted are these: foliar, wheat leaf segments sprayed with 0.02% active ingredient one day after inoculation, assessed 8 days after inoculation, read-out: curative fungicidal activity (inhibition). On the procedure: Curative Action Against Puccinia recondita (Brown Rust) on Wheat Wheat leaf segments were placed on agar in multiwell plates (24-well format) and inoculated with a spore suspension of the fungus. One day after inoculation the leaf segments were sprayed with test solutions (0.02% active ingredient). After appropriate incubation the activity of a compound was assessed 8 days after inoculation as curative fungicidal activity.

In series [3] the test system is Mycosphaerella arachidis. Put plainly: Action against Mycosphaerella arachidis (early leaf spot of groundnut) - fungal growth assay. Particulars: 0.002% active ingredient, PDB nutrient broth, 24° C., photometrically after 6-7 days. It is filed as cell-based. The method, then:
(§1) Action Against Mycosphaerella arachidis (Early Leaf Spot of Groundnut; Cercospora arachidicola [Anamorph])—Fungal Growth Assay Conidia of the fungus from cryogenic storage were directly mixed into nutrient broth (PDB potato dextrose broth). After placing a (DMSO) solution of the test compounds (0.002% active ingredient) into a microtiter plate (96-well format) the nutrient broth containing the fungal spores was added. The test plates were incubated at 24° C. and the inhibition of growth was measured photometrically after 6-7 days. The activity of a compound was expressed as fungal growth inhibition (0=no growth inhibition, ratings of 80% to 99% mean good to very good inhibition, 100%=complete inhibition). Compounds 1.003 and 1.004 show very good activity in this test (≧80% inhibition).

Series [4] relates to Septoria tritici. Kind of series: Action against Septoria tritici - fungal growth assay. The class given is cell-based. Particulars: Zymoseptoria tritici; 0.002% active ingredient, PDB nutrient broth, 24° C., photometrically after 72 hrs. The method, then: as §1, with “Septoria tritici—Fungal” for “Mycosphaerella arachidis (Early Leaf Spot of Groundnut; Cercospora arachidicola [Anamorph])—Fungal”, “determined” for “measured”, “72 hrs.” for “6-7 days.”, “inhibition).” for “inhibition). Compounds 1.003 and 1.004 show very good activity in this test (≧80% inhibition).”

The subject of series [5] is Erysiphe graminis f.sp. tritici. Put plainly: Action against Erysiphe graminis f.sp. tritici (wheat powdery mildew), wheat leaf segments. It is filed as in vivo. Particulars: Blumeria graminis, foliar, 168 h; wheat leaf segments sprayed with 0.02% active ingredient, assessed 7 days after inoculation; read-out: preventive fungicidal activity (inhibition). The method, then: Action Against Erysiphe graminis f.sp. tritici (Wheat Powdery Mildew) Wheat leaf segments were placed on agar in multiwell plates (24-well format) and sprayed with test solutions (0.02% active ingredient). After drying, the leaf disks were inoculated with a spore suspension of the fungus. After appropriate incubation the activity of a compound was assessed 7 days after inoculation as preventive fungicidal activity.

The subject of series [6] is Botrytis cinerea. Put plainly: Action against Botrytis cinerea - fungal growth assay. The class given is cell-based. The conditions noted are these: 0.002% active ingredient, PDB nutrient broth, 24° C., photometrically after 3-4 days. The method, then:
as §1, with “Against Botrytis cinerea—Fungal” for “Against Mycosphaerella arachidis (Early Leaf Spot of Groundnut; Cercospora arachidicola [Anamorph])—Fungal”, “storage was” for “storage were”, “after 3-4” for “after 6-7”

Series [7] concerns Puccinia recondita. Put plainly: Protective action against Puccinia recondita (brown rust) on wheat leaf segments. Particulars: foliar, 192 h, wheat leaf segments sprayed with 0.02% active ingredient, assessed 8 days after inoculation, read-out: preventive fungicidal activity (inhibition). It is filed as in vivo. On the procedure:
Protective Action Against Puccinia recondita (Brown Rust) on Wheat Wheat leaf segments were placed on agar in multiwell plates (24-well format) and sprayed with test solutions (0.02% active ingredient). After drying, the leaf disks were inoculated with a spore suspension of the fungus. After appropriate incubation the activity of a compound was assessed 8 days after inoculation as preventive fungicidal activity.

For series [8], the system named is Monographella nivalis. Put plainly: Action against Monographella nivalis (snow mould) - fungal growth assay. Particulars: 0.002% active ingredient, PDB nutrient broth, 24° C., photometrically after 72 hrs. It is filed as cell-based. The method, then:
Action Against Monographella nivalis (Anamorph: Fusarium nivale, Microdochium nivale; Snow Mould)—Fungal Growth Assay Conidia of the fungus from cryogenic storage were directly mixed into nutrient broth (PDB potato dextrose broth). After placing a DMSO-solution of the test compounds (0.002% active ingredient) into a microtiter plate (96-well format) the nutrient broth containing the fungal spores was added. The test plates were incubated at 24° C. and the inhibition of growth was measured photometrically after 72 hrs (0=no growth inhibition, ratings of 80% to 99% mean good to very good inhibition, 100%=complete inhibition).

Experimental findings from patent US8552049B2, “Pyrazolecarboxamide derivatives and their use as microbiocides” (Syngenta Corp Protection, LLC, priority 2010, dated 2013) are described below.

For the compound `CON(C(=O)c1cn(C)nc1C(F)F)C(CF)Cc1ccc(Cl)cc1Cl` (stereo not drawn) [Compound 1.003, 3-difluoromethyl-1-methyl-1H-pyrazole-4-carboxylic acid [2-(2,4-dichloro-phenyl)-1-fluoromethyl-ethyl]-methoxy-amide], the inhibition at 0.02 % strength in [1], in series [2], in series [5] and in series [7] was at least 80% throughout. For the same compound, the inhibition at 0.002 % strength in series [3], in series [4], in series [6] and in series [8] was at least 80% in each case.

`CON(C(=O)c1cn(C)nc1C(F)F)C(CF)Cc1c(Cl)cc(Cl)cc1Cl` (stereo not drawn) [Compound 1.004, 3-difluoromethyl-1-methyl-1H-pyrazole-4-carboxylic acid [1-fluoromethyl-2-(2,4,6-trichlorophenyl)-ethyl]-methoxy-amide] displayed a melting point of 117 to 118 °C. The inhibition at 0.02 % strength in [1] is at least 80%. In addition, the inhibition at 0.02 % strength in series [2] was at least 80%. Also, the inhibition at 0.002 % strength in series [3] was at least 80%. The compound also gave an inhibition at 0.002 % strength in [4] of at least 80%. Moreover, the inhibition at 0.02 % strength in [5] is at least 80%. The compound further displayed an inhibition at 0.002 % strength in series [6] of at least 80%. The inhibition at 0.02 % strength in series [7] is at least 80%. In [8], the inhibition at 0.002 % strength is at least 80%.

In turn, `CON(C(=O)c1cn(C)nc1C(F)(F)F)C(CF)Cc1c(Cl)cc(Cl)cc1Cl` (stereo not drawn) [Compound 3.004, 1-methyl-3-trifluoromethyl-1H-pyrazole-4-carboxylic acid [1-fluoromethyl-2-(2,4,6-trichlorophenyl)-ethyl]-methoxy-amide] returned a melting point of 131 to 133 °C.
